Measured values as given in patent US9365541B2, “Compounds for use in the treatment of parasitic diseases” (IRBM—SCIENCE PARK S.P.A., priority 2012, dated 2016).

Key:
[1] = molecular target: T1, human HDAC1 (Homo sapiens, UniProt Q13547); assay: Homo sapiens HDAC1 inhibition assay (Fluor-de-Lys, enzymatic); format: biochemical; details: human HDAC enzymatic assay; read-out: hHDAC IC50
T1 construct: made in house; host or cells: HeLa (ATCC CCL-2), mammalian cells
In short: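 Fluorogenic deacetylation read-out: trypsin developer, supplemented with 2 μM final TSA as stop, releases fluorophore from deacetylated substrate.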

[2] = tested on: Plasmodium falciparum 3D7; assay: P. falciparum growth inhibition assay (Pf-LDH); format: cell-based; details: for Selectivity Index: HDAC HeLa Cell Based IC50 (μM)/Pf-LDH EC50 (μM); for EC50: Plasmodium falciparum, Erythrocyte, P. falciparum 3D7 infected erythrocytes, 72 h incubation, PfLDH readout
In short: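 Compounds were tested against 72 h cultures of the 3D7 strain (0.25% parasitemia, 2% hematocrit, 37° C, low-oxygen gas). Parasite growth was quantified as lactate dehydrogenase activity via NBT reduction, absorbance 650 nm, after freezing and thawing.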

[3] = tested on: HDAC1 (deacetylase activity inside HeLa cells); assay: Cell based HDAC1 inhibition (HDAC HeLa Cell based assay); set-up: species or system human
Protocol: After result normalization using positive and negative controls, compound potency is determined by fitting the following equation: % inh=Ymin+(Ymax−Ymin)/(1+(X/IC50)^slope)) Where: • Ymin=minimum percentage inhibition • Ymax=maximum percentage inhibition • IC50=the concentration of the compound at which 50% inhibition is reached • Slope=the slope of the curve calculated at the IC50 Cell Based HDAC1 Inhibition Overview:
The aim of the assay is to evaluate the inhibition of the deacetylase activity inside the cells. To such goal a membrane permeable substrate is added to HeLa cells. After the incubation period, cells are lysed and the deacetylated substrate is evaluated using the same principles previously described for the human HDAC1 assay.
HeLa cells (HeLa, cervix adnocarcinoma, ATCC® Number: CCL-2™) frozen stock are derived from cell cultured in DMEM, glutamine, penicilline, streptomicine and 10% fetal bovine serum (FBS). Stock are frozen in 90% FBD and 10% DMSO.
b) HDAC Substrate Buffer System
Reagents of the HDAC Fluorescent Activity Assay are purchased from Enzo Life Sciences (http://www.enzolifesciences.com/BML-AK500/fluor-de-lys-hdac-fluorometric-activity-assay-kit/) and feature the Fluor-de-Lys™ Substrate/Developer System. The reagents include the proprietary fluorescent substrate as a 50 mM stock solution (KI-104), and the Developer Concentrate (KI-105). Deacetylation of the lysine residue of the Fluor-de-Lys substrate is quantified by measuring the fluorescence (ex 360 nm, em 460 nm) after addition of the proprietary developer.
TSA is provided as a 10 mM stock solution in 100% dimethylsulfoxide (DMSO).
Test compounds should be prepared in 100% DMSO and transferred to the assay by a nano volume dispenser to reach the appropriate concentration and the appropriate DMSO concentration (0.25%) in the reaction.
GIBCO Dulbecco's Mod Eagle Medium without Phenol Red (cat n° 11880) Completed with 10% FCS—fetal bovine serum—, 1% Penicillin-Streptomycin (10 mg/ml) and 1% L-Glutamine 200 mM (100×)
f) Diluted Substrate Solution
The commercial 50 mM Fluor-de-Lys substrate (KI-104) is diluted to 400 uM in Assay Buffer prior to each use.
g) Diluted Stop-Lysis-Developer Solution
The reaction is performed in 384-well microplate in a final volume of 20 μl/well+10 μl/well of Stop-Lysis-Developer Mix, as following: • seed 10000 HeLa cells/well, from the frozen aliquots, in 15 μl in assay medium and let recover overnight; • transfer compounds to the assay by nano-volume transfer machine in order to reach the desired assay concentration and a final DMSO concentration of 0.25%; • pre-incubate compounds on cells for 30 min; • start the reaction by adding 5 μl of the Diluted Substrate Solution; • stop the reaction after 4 h incubation at 37° C. 5% CO2 by adding 10 μl of Diluted Stop-Lysis-Developer Solution; • incubate 20 min at 37° C.; • after 10 min at RT measure the fluorescence at excitation 360 nm and emission 460 nm
Negative controls (0% Effect) are produced by addition of DMSO to the proper wells.
Positive controls (100% Effect) are produced by addition of 4 μM TSA to the proper wells.
After result normalization using positive and negative controls, compound potency is determined by fitting the following equation: % inh=Ymin+(Ymax−Ymin)/(1+(X/EC50)^slope)) Where: • Ymin=minimum percentage effect • Ymax=maximum percentage effect • EC50=the concentration of the compound at which 50% effect is reached • Slope=the slope of the curve calculated at the EC50 In Vitro Culture of P. falciparum Parasites

T1 sequence (Q13547 whole entry): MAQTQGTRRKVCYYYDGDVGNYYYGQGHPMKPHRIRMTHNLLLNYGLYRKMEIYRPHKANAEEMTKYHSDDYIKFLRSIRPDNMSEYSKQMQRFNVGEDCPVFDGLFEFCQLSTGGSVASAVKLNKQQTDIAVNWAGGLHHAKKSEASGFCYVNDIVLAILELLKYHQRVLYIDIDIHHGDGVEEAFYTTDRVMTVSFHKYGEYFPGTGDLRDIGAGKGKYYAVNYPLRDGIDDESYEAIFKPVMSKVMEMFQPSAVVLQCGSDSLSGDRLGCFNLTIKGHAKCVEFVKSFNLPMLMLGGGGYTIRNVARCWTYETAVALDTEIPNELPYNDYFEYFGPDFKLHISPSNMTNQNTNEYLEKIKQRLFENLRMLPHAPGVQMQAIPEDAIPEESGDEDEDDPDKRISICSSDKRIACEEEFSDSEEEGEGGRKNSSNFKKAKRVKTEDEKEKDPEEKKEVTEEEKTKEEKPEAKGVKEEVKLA

Row | Compound | IC50 [1] | EC50 [2] | IC50 [3] | Selectivity Index [2]
1 | CNC(=O)CCCCC[C@H](NC(=O)c1cncs1)c1ncc(-c2ccc(-c3cscn3)cc2)[nH]1 [compound 232, (S)-N-(7-(methylamino)-7-oxo-1-(5-(4-(thiazol-4-yl)phenyl)-1H-imidazol-2-yl)heptyl)thiazole-5-carboxamide] | 1000 to 5000 nM | < 1000 nM | > 5000 nM | 14.2
2 | CNC(=O)CCCCC[C@H](NC(=O)c1cncs1)c1ncc(-c2ccc(-c3cncs3)cc2)[nH]1 [compound 230, (S)-N-(7-(methylamino)-7-oxo-1-(5-(4-(thiazol-5-yl)phenyl)-1H-imidazol-2-yl)heptyl)thiazole-5-carboxamide] | 1000 to 5000 nM | 1000 to 5000 nM | > 5000 nM | 3.6
3 | CNC(=O)CCCCC[C@H](NC(=O)c1cncs1)c1ncc(-c2cc3ccccc3s2)[nH]1 [Entry 51, (S)-N-(1-(5-(benzo[b]thiophen-2-yl)-1H-imidazol-2-yl)-7-(methylamino)-7-oxoheptyl)thiazole-5-carboxamide] | 1000 to 5000 nM | 1000 to 5000 nM |  | 
4 | CNC(=O)CCCCC[C@H](NC(=O)c1cncs1)c1ncc(-c2ccn3ncnc3c2)[nH]1 [Entry 125, (S)-N-(1-(5-([1,2,4]triazolo[1,5-a]pyridin-7-yl)-1H-imidazol-2-yl)-7-(methylamino)-7-oxoheptyl)thiazole-5-carboxamide] | > 5000 nM | > 5000 nM |  | 
5 | COc1ccc2[nH]c(C)c(CC(=O)N[C@@H](CCCCCC(N)=O)c3nnc(-c4ccc5ccccc5c4)[nH]3)c2c1 [Entry 70, (S)-7-(2-(5-methoxy-2-methyl-1H-indol-3-yl)acetamido)-7-(5-(naphthalen-2-yl)-4H-1,2,4-triazol-3-yl)heptanamide] | < 1000 nM | < 1000 nM |  | 
6 | CNC(=O)CCCCC[C@H](NC(=O)c1cc(C)n(C)n1)c1ncc(-c2ccc(-c3ccn(C)n3)cc2)[nH]1 [Entry 216, (S)-1,5-dimethyl-N-(1-(5-(4-(1-methyl-1H-pyrazol-3-yl)phenyl)-1H-imidazol-2-yl)-7-(methylamino)-7-oxoheptyl)-1H-pyrazole-3-carboxamide] | > 5000 nM | 1000 to 5000 nM |  | 
7 | CNC(=O)CCCCC[C@H](NC(=O)Cc1csc(-c2ccccc2)n1)c1ncc(-c2cc3ccccc3nc2OC)[nH]1 [Entry 185] | 1000 to 5000 nM | 1000 to 5000 nM |  | 
8 | CNC(=O)CCCCC[C@H](NC(=O)c1ccc(-n2cnnn2)cc1)c1ncc(-c2ccc3ccccc3c2)[nH]1 [Entry 117, (S)-N-(7-(methylamino)-1-(5-(naphthalen-2-yl)-1H-imidazol-2-yl)-7-oxoheptyl)-4-(1H-tetrazol-1-yl)benzamide] | 1000 to 5000 nM | 1000 to 5000 nM |  | 
9 | CCc1nc2ccccc2n1CCC(=O)N[C@@H](CCCCCC(=O)NC)c1ncc(-c2ccc3ccccc3c2)[nH]1 [Entry 150, (S)-7-(3-(2-ethyl-1H-benzo[d]imidazol-1-yl)propanamido)-N-methyl-7-(5-(naphthalen-2-yl)-1H-imidazol-2-yl)heptanamide] | < 1000 nM | < 1000 nM |  | 

Further lines, with some results ahead:

Row | IC50 [1] | EC50 [2] | IC50 [3] | Compound | Selectivity Index [2]
10 | > 5000 nM | 1000 to 5000 nM | > 5000 nM | CNC(=O)CCCCC[C@H](NC(=O)c1cncs1)c1ncc(-c2ccc(-c3ccnn3C)cc2)[nH]1 [compound 229, (S)-N-(1-(5-(4-(1-methyl-1H-pyrazol-5-yl)phenyl)-1H-imidazol-2-yl)-7-(methylamino)-7-oxoheptyl)thiazole-5-carboxamide] | 5.6
11 | < 1000 nM | < 1000 nM | 1000 to 5000 nM | CNC(=O)CCCCC[C@H](NC(=O)c1cnn(C(C)C)c1)c1ncc(-c2ccc3cc(OC)ncc3c2)[nH]1 [compound 227, (S)-1-isopropyl-N-(1-(5-(3-methoxyisoquinolin-7-yl)-1H-imidazol-2-yl)-7-(methylamino)-7-oxoheptyl)-1H-pyrazole-4-carboxamide] | 23.5
12 | 1000 to 5000 nM | < 1000 nM | > 5000 nM | CNC(=O)CCCCC[C@H](NC(=O)c1cncs1)c1ncc(-c2ccc(-c3nccs3)cc2)[nH]1 [compound 231, (S)-N-(7-(methylamino)-7-oxo-1-(5-(4-(thiazol-2-yl)phenyl)-1H-imidazol-2-yl)heptyl)thiazole-5-carboxamide] | 10.6
13 | > 5000 nM | 1000 to 5000 nM | > 5000 nM | CNC(=O)CCCCC[C@H](NC(=O)c1cncs1)c1ncc(-c2ccc(-c3cnn(C)c3)cc2)[nH]1 [compound 228, (S)-N-(1-(5-(4-(1-methyl-1H-pyrazol-4-yl)phenyl)-1H-imidazol-2-yl)-7-(methylamino)-7-oxoheptyl)thiazole-5-carboxamide] | 6.7
14 | < 1000 nM | < 1000 nM |  | CNC(=O)CCCCC[C@H](NC(=O)c1cnc(C)s1)c1ncc(-c2ccc3ccncc3c2)[nH]1 [Entry 49, (S)-N-(1-(5-(isoquinolin-7-yl)-1H-imidazol-2-yl)-7-(methylamino)-7-oxoheptyl)-2-methylthiazole-5-carboxamide] | 
